Measurements taken from EP1174424A1, “3-[…] D DERIVATIVES” (CHUGAI SEIYAKU KABUSHIKI KAISHA, priority 1999, dated 2000).

The compounds below were run against T1, Bovine thymus 1α,25-dihydroxy vitamin D3 receptor (Bos taurus, UniProt Q28037) (assay: Assay for binding to vitamin D receptor (VDR); displacement of [3H]-1α,25-dihydroxy vitamin D3). Settings: relative value, with that of 1α,25-dihydroxy vitamin D3 taken as 100; [3H]-1α,25-dihydroxy vitamin D3 at 0.1 nM, overnight at 4°C.
T1 construct: Bovine thymus 1α,25-dihydroxy vitamin D3 receptor was purchased from YAMASA BIOCHEMICAL; purchased YAMASA BIOCHEMICAL (Choshi, Chiba, Japan); host or cells: bovine thymus (tissue preparation)
T1 sequence (Q28037 1-426): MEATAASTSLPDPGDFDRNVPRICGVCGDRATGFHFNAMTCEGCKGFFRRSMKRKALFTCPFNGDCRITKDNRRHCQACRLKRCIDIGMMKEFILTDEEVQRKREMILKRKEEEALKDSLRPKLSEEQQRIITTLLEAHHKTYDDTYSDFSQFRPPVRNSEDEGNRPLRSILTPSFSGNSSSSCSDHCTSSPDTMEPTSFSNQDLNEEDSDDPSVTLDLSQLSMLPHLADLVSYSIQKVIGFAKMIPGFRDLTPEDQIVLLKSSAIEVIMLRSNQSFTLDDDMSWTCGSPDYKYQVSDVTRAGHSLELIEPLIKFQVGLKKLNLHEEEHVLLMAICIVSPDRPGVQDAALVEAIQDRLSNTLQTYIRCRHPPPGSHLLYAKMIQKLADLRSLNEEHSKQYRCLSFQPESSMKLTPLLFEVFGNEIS
Procedure: Test example 1: Assay for binding to vitamin D receptor (VDR)
Bovine thymus 1α,25-dihydroxy vitamin D3 receptor was purchased from YAMASA BIOCHEMICAL (Choshi, Chiba, Japan) and dissolved in 0.05 M phosphate buffer (pH 7.4) containing 0.3M KCl and 5mM dithiothreitol just before use. Aliquots (500 µl, 0.23 mg protein) of the receptor solution and ethanol solutions (50 µl) of 1α,25-dihydroxy vitamin D3 or derivatives (compounds of the present invention) at various concentrations were combined, and pre-incubated at 25°C for 60 minutes. To the resultant receptor mixtures, [^3H]-1α,25-dihydroxy vitamin D3 was added at 0.1 nM, followed by standing overnight at 4°C. The mixtures were treated with dextran coated charcoal for 30 minutes at 4°C to separate the bound arid free forms of [^3H]-1α,25-dihydroxy vitamin D3, and centrifuged at 3000 rpm for ten minutes. Each of the resultant supernatants (500 µl) was mixed with ACS-II (9.5 ml) (AMERSHAM, England) for radioactivity measurement.
The binding property of the compounds of the present invention was expressed in relative values, with that of 1α,25-dihydroxy vitamin D3 taken as 100. (Table 1)
For `C=C1/C(=C\C=C2/CCC[C@]3(C)[C@@H]([C@H](C)CCCC(C)(C)O)CC[C@@H]23)C[C@](C)(O)C[C@@H]1O` [3-Me-(1α,3α)-dihydroxy vitamin D3], the Binding property was < 0.1.
`C=C1/C(=C\C=C2/CCC[C@]3(C)[C@@H]([C@H](C)CCCC(C)(C)O)CC[C@@H]23)C[C@@](C)(O)C[C@@H]1O` [3-Me-(1α,3β)-dihydroxy vitamin D3] gave a Binding property of 18.
With `C=C1/C(=C\C=C2/CCC[C@]3(C)[C@@H]([C@H](C)CCCC(C)(C)O)CC[C@@H]23)C[C@](C)(O)C[C@H]1O` [3-Me-(1β,3α)-dihydroxy vitamin D3, 3-methyl-1β,3α-dihydroxy vitamin D3] the Binding property was < 0.1.
`C=C1/C(=C\C=C2/CCC[C@]3(C)[C@@H]([C@H](C)CCCC(C)(C)O)CC[C@@H]23)C[C@@](C)(O)C[C@H]1O` [3-Me-(1β,3β)-dihydroxy vitamin D3, 3-methyl-1β,3β-dihydroxy vitamin D3] was tested, and the Binding property was < 0.1.
